Measurements reported in PubChem BioAssay AID743341 (Broad Institute, 2014).
Results filed as inconclusive are left out. Calls of active or inactive are those of the source.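 How the source made its calls: active means fitted curve of myotube length rescue reaches 40% at or below the top valid tested dose in every replicate test; inconclusive means replicate tests give mixed outcomes; inactive means every replicate test inactive, including effects in the opposite direction.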

Assays:
[1] = rescue of myotube length under simvastatin, confirmation, orthogonal assay for statin myotoxicity suppressor project, imaging, C2C12 myotubes, MHC immunostaining, dry powder (AID 743341); conditions: C2C12 myotubes + simvastatin, MHC imaging tube length, 48 h
[2] = system: C2C12 myotubes + simvastatin, MHC imaging tube length, 48 h; assay: as above

Compound	rescue of myotube length ([1]; at 19.5 µM (top of the series))	further results
N#C[C@@H]1[C@@H](c2ccc(C#Cc3cccnc3)cc2)[C@@H](CO)N1C(=O)C1CCCC1	5.74% (inactive)	
C[C@@H]1CN([C@@H](C)CO)C(=O)c2cc(NC(=O)Nc3cccc4ccccc34)ccc2O[C@@H]1CN(C)Cc1ccc(C(=O)Nc2ccccc2N)cc1		rescue of myotube length ([1]; at 21 µM (top of the series)): 20.8% (inactive)
C[C@@H]1CN([C@@H](C)CO)C(=O)c2cccc(NC(=O)Nc3ccc4c(c3)OCO4)c2O[C@H]1CN(C)Cc1ccc(C(=O)Nc2ccccc2N)cc1		AC40 [2]: 7.66 µM
C[C@@H]1CN([C@@H](C)CO)C(=O)Cc2cc(NC(=O)CCCCCC(=O)Nc3ccccc3N)ccc2O[C@@H]1CN(C)Cc1ccc(Oc2ccccc2)cc1		rescue of myotube length ([1]; at 21 µM (top of the series)): -5.63% (inactive)
C[C@H]1CN([C@@H](C)CO)C(=O)Cc2cc(NC(=O)Nc3cccc4ccccc34)ccc2O[C@H]1CN(C)Cc1ccc(C(=O)Nc2ccccc2N)cc1		AC40 [2]: 4.57 µM
COc1ccc(C#Cc2cnc3c(c2)C(=O)N([C@H](C)CO)C[C@H](C)[C@H](CN(C)Cc2ccccc2)O3)cc1OC	-10.4% (inactive)	
CN(C)C(=O)c1cccc(-c2ccc([C@@H]3[C@@H](C#N)N(C(=O)C4CCCC4)[C@@H]3CO)cc2)c1	13.3% (inactive)	
C[C@H]1CN([C@@H](C)CO)C(=O)Cc2cc(NC(=O)CCCCCC(=O)Nc3ccccc3N)ccc2O[C@H]1CN(C)Cc1ccc(Oc2ccccc2)cc1		AC40 [2]: 3.07 µM
N#C[C@@H]1[C@@H](c2ccc(C3=CCCCC3)cc2)[C@H](CO)N1C(=O)NC1CCCC1	9.82% (inactive)	
N#C[C@H]1[C@H](c2ccc(C#CCC3CCCC3)cc2)[C@@H](CO)N1C(=O)CN1CCOCC1	14.6% (inactive)	
C[C@@H]1CN([C@H](C)CO)C(=O)Cc2cc(NC(=O)CCCCCC(=O)Nc3ccccc3N)ccc2O[C@@H]1CN(C)Cc1ccc(Oc2ccccc2)cc1	-9.32% (inactive)	
C[C@H]1CN([C@@H](C)CO)C(=O)Cc2cc(NC(=O)CCCCCC(=O)Nc3ccccc3N)ccc2O[C@H]1CN(C)Cc1ccccc1		rescue of myotube length ([1]; at 18 µM (top of the series)): 21.7% (inactive)
C[C@H]1CN([C@@H](C)CO)C(=O)Cc2cc(NC(=O)CCCCCC(=O)Nc3ccccc3N)ccc2O[C@H]1CN(C)CC1CCCCC1		AC40 [2]: 8.03 µM
C[C@H](CO)N1C[C@H](C)[C@@H](CN(C)Cc2ccc(Oc3ccccc3)cc2)Oc2c(NC(=O)Nc3cccc4ccccc34)cccc2C1=O	14.7% (inactive)	
C[C@H]1CN([C@@H](C)CO)S(=O)(=O)c2ccc(C#CC3CC3)cc2O[C@H]1CN(C)C(=O)Nc1cc(F)ccc1F		AC40 [2]: 19.5 µM
O=C(C[C@H]1CC[C@@H]2[C@H](COC[C@H](O)CN2CCC(F)(F)F)O1)NCc1ccc(Oc2ccccc2)cc1	5.97% (inactive)	
C[C@@H]1CN([C@@H](C)CO)C(=O)c2cc(NC(=O)Cc3cn(C)c4ccccc34)ccc2O[C@@H]1CN(C)Cc1ccc(C(=O)Nc2ccccc2N)cc1		AC40 [2]: 10.5 µM
C/C=C/c1ccc([C@H]2[C@@H](CO)N(C(=O)NC3CCCC3)[C@H]2C#N)cc1	12.4% (inactive)	
C[C@@H]1CN([C@H](C)CO)C(=O)Cc2cc(NS(=O)(=O)c3cn(C)cn3)ccc2O[C@@H]1CN(C)Cc1ccc(Cl)c(Cl)c1	24% (inactive)	
C[C@H](CO)N1C[C@H](C)[C@H](CN(C)Cc2ccc(C(=O)Nc3ccccc3N)cc2)Oc2ccc(N(C)C)cc2C1=O		AC40 [2]: 0.581 µM
N#C[C@@H]1[C@@H](c2ccc(-c3cccc(F)c3)cc2)[C@@H](CO)N1C(=O)NC1CCCC1	3.2% (inactive)	

Compound	rescue of myotube length ([1]; at 19.5 µM (top of the series))	further results
N#C[C@H]1[C@@H](c2ccc(-c3cccc(F)c3)cc2)[C@@H](CO)N1C(=O)NC1CCCC1	-4.89% (inactive)	
N#C[C@H]1[C@H](c2ccc(C#Cc3ccc(F)cc3)cc2)[C@H](CO)N1c1nc(-c2ccccc2)cs1	25.1% (inactive)	
C[C@@H]1CN([C@@H](C)CO)C(=O)c2cc(NC(=O)Cc3cn(C)c4ccccc34)ccc2O[C@H]1CN(C)Cc1ccc(C(=O)Nc2ccccc2N)cc1		AC40 [2]: 10.9 µM
N#C[C@@H]1[C@H](c2ccc(-c3cccc(F)c3)cc2)[C@@H](CO)N1C(=O)NC1CCCC1	12.9% (inactive)	
C[C@H]1CN([C@@H](C)CO)C(=O)Cc2cc(NS(=O)(=O)c3ccc(Cl)cc3)ccc2O[C@@H]1CN(C)CC1CCCCC1		rescue of myotube length ([1]; at 21 µM (top of the series)): -32.7% (inactive)
N#C[C@@H]1[C@@H](c2ccccc2)[C@H](CO)N1S(=O)(=O)c1ccc(-c2ccccc2)cc1		rescue of myotube length ([1]; at 21 µM (top of the series)): 13.9% (inactive)
N#C[C@@H]1[C@@H](c2ccc(-c3ccc(F)cc3)cc2)[C@H](CO)N1C(=O)Cc1ccccc1		AC40 [2]: 15 µM
N#C[C@@H]1[C@@H](c2ccc(-c3cccc(F)c3)cc2)[C@H](CO)N1C(=O)c1cccnc1	12.6% (inactive)	
C[C@H](CO)N1C[C@H](C)[C@H](CN(C)Cc2ccc3c(c2)OCO3)Oc2ccc(NC(=O)CCCCCC(=O)Nc3ccccc3N)cc2CC1=O		rescue of myotube length ([1]; at 18 µM (top of the series)): 19.7% (inactive)
C[C@@H]1CN([C@@H](C)CO)C(=O)c2cc(NS(=O)(=O)c3ccc(Cl)cc3)ccc2O[C@H]1CN(C)C(=O)Nc1cccc2ccccc12	-1.68% (inactive)	
CCCNC(=O)N1[C@H](CO)[C@H](c2ccccc2)[C@@H]1C#N	1.19% (inactive)	
CC(C)=CCC/C(C)=C/CC/C(C)=C/CC/C(C)=C/CO		AC40 [2]: 4.25 µM
COc1ccc(S(=O)(=O)Nc2ccc3c(c2)CC(=O)N([C@H](C)CO)C[C@@H](C)[C@H](CN(C)CC2CCCCC2)O3)cc1	-8.93% (inactive)	
COc1ccc(S(=O)(=O)Nc2ccc3c(c2)CC(=O)N([C@H](C)CO)C[C@H](C)[C@@H](CN(C)Cc2ccc(Cl)c(Cl)c2)O3)cc1	-14.2% (inactive)	
COCC(=O)N1[C@H](C#N)[C@@H](c2ccc(-c3cccc(F)c3)cc2)[C@@H]1CO		rescue of myotube length ([1]; at 21 µM (top of the series)): 4.32% (inactive)
COc1ccc(S(=O)(=O)Nc2cccc3c2O[C@H](CN(C)C(=O)Nc2ccc(F)cc2)[C@H](C)CN([C@@H](C)CO)C3=O)cc1	-2.59% (inactive)	
C[C@H]1CN([C@@H](C)CO)S(=O)(=O)c2ccc(C#Cc3ccc(F)cc3)cc2O[C@@H]1CN(C)S(=O)(=O)c1cn(C)cn1		AC40 [2]: 13 µM
C[C@H]1CN([C@@H](C)CO)C(=O)c2cc(N(C)C)ccc2O[C@@H]1CN(C)Cc1ccc(C(=O)Nc2ccccc2N)cc1		AC40 [2]: 1.55 µM
N#C[C@H]1[C@@H](c2ccc(-c3cccc(F)c3)cc2)[C@H](CO)N1C(=O)NC1CCCC1	8.46% (inactive)	
Cc1ccc(S(=O)(=O)N(C)C[C@@H]2Oc3ccc(NS(=O)(=O)c4ccc(Cl)cc4)cc3C(=O)N([C@H](C)CO)C[C@@H]2C)cc1	3.15% (inactive)	
COc1ccc(-c2ccc([C@@H]3[C@@H](C#N)N(C(=O)NC4CCCC4)[C@H]3CO)cc2)cc1	7.03% (inactive)	

Compound	rescue of myotube length ([1]; at 19.5 µM (top of the series))	further results
C[C@H](CO)N1C[C@H](C)[C@@H](CN(C)Cc2ccc(Cl)c(Cl)c2)Oc2ccc(NC(=O)C3CC3)cc2CC1=O	-6.48% (inactive)	
Cc1noc(C)c1S(=O)(=O)Nc1ccc2c(c1)CC(=O)N([C@H](C)CO)C[C@H](C)[C@@H](CN(C)Cc1ccc(C(F)(F)F)cc1)O2	-1.01% (inactive)	
COc1ccc(CN(C)C[C@H]2Oc3ccc(NS(=O)(=O)c4ccc(Cl)cc4)cc3CC(=O)N([C@@H](C)CO)C[C@@H]2C)cc1	-19% (inactive)	
N#C[C@@H]1[C@@H](c2ccccc2-c2ccc(F)cc2)[C@H](CO)N1C(=O)NC1CCCC1	15.4% (inactive)	
CCCNC(=O)N1[C@@H](C#N)[C@@H](c2ccc(-c3ccccc3F)cc2)[C@@H]1CO		rescue of myotube length ([1]; at 21 µM (top of the series)): -2.07% (inactive)
O=C(C[C@H]1CC[C@@H]2[C@H](COC[C@@H](O)CN2Cc2ccc(Oc3ccccc3)cc2)O1)N1CCCCC1	15.6% (inactive)	
C[C@@H]1CN([C@H](C)CO)C(=O)Cc2cc(NS(=O)(=O)c3ccc(Cl)cc3)ccc2O[C@H]1CN(C)Cc1ccccc1	0.917% (inactive)	
N#C[C@H]1[C@H](c2ccc(-c3cccc(F)c3)cc2)[C@H](CO)N1C(=O)NC1CCCC1	14.9% (inactive)	
Cc1ccc(S(=O)(=O)Nc2ccc3c(c2)CC(=O)N([C@@H](C)CO)C[C@@H](C)[C@H](CN(C)Cc2ccc(-c4ccccc4)cc2)O3)cc1	-2.54% (inactive)	
N#C[C@@H]1[C@@H](c2ccc(C#CC3CCCC3)cc2)[C@H](CO)N1S(=O)(=O)c1ccccc1		rescue of myotube length ([1]; at 21 µM (top of the series)): 4.55% (inactive)
C[C@H]1CN([C@@H](C)CO)C(=O)c2cc(NC(=O)Nc3cccc4ccccc34)ccc2O[C@H]1CN(C)Cc1ccc(C(=O)Nc2ccccc2N)cc1	13.4% (inactive)	
CCCC#Cc1ccc([C@H]2[C@@H](C#N)N(S(=O)(=O)c3cccc(F)c3)[C@H]2CO)cc1	4.16% (inactive)	
CCCNC(=O)N1[C@H](C#N)[C@@H](c2ccc(C3=CCCCC3)cc2)[C@@H]1CO	22.8% (inactive)	
CN1C(=O)c2cc(NC(=O)c3ccc(F)c(F)c3)ccc2OC[C@H]2O[C@@H](CC(=O)Nc3ccc4c(c3)COC4)CC[C@@H]21	12.6% (inactive)	
CCS(=O)(=O)N1[C@H](C#N)[C@@H](c2ccc(-c3cccc(F)c3)cc2)[C@@H]1CO		rescue of myotube length ([1]; at 21 µM (top of the series)): 16.6% (inactive)
CC(C)CC#Cc1cnc2c(c1)C(=O)N([C@H](C)CO)C[C@H](C)[C@@H](CN(C)C(=O)Cc1ccccc1)O2		rescue of myotube length ([1]; at 21 µM (top of the series)): -0.121% (inactive)
Cc1noc(C)c1S(=O)(=O)Nc1ccc2c(c1)CC(=O)N([C@H](C)CO)C[C@@H](C)[C@@H](CN(C)Cc1ccc(-c3ccccc3)cc1)O2		rescue of myotube length ([1]; at 21 µM (top of the series)): -14.9% (inactive)
N#C[C@H]1N[C@@H](CO)[C@@H]1c1ccc(-c2cccc(F)c2)cc1		rescue of myotube length ([1]; at 21 µM (top of the series)): 8.43% (inactive)
COc1ccc(C#Cc2cnc3c(c2)C(=O)N([C@H](C)CO)C[C@H](C)[C@@H](CN(C)C(=O)Nc2cccc(OC)c2)O3)cc1	30.4% (inactive)	
N#C[C@@H]1[C@@H](c2ccccc2-c2cccc(F)c2)[C@H](CO)N1C(=O)NC1CCCC1	10.7% (inactive)	
COc1ccc(S(=O)(=O)N(C)C[C@H]2Oc3c(NC(=O)Nc4ccccc4)cccc3C(=O)N([C@H](C)CO)C[C@H]2C)cc1	3.68% (inactive)	
